The numbers were not newly measured in patent EP1204793B1, “STABLE SILICONE OIL EMULSION COMPOSITION, ARTICLE OF MANUFACTURE, AND METHOD OF FABRIC WRINKLE CONTROL” (THE PROCTER & GAMBLE COMPANY, priority 1999, dated 2001), which cites them from elsewhere.

Counter-ions that a name gives are not always drawn.

For the compound `[H]/N=C(\N/C(=N/[H])NCCCCCCNC(=N)NC(=N)Nc1ccc(Cl)cc1)Nc1ccc(Cl)cc1` [diacetate salt, 1,1'-hexamethylene bis(5-(p-chlorophenyl)biguanide)], the solubility in water entry is on record as “about 1.8%”.

With `[H]/N=C(\N/C(=N/[H])NCCCCCCNC(=N)NC(=N)Nc1ccc(Cl)cc1)Nc1ccc(Cl)cc1` [digluconate salt, 1,1'-hexamethylene bis(5-(p-chlorophenyl)biguanide)], the solubility in water result is “about 70%”.
